# Entries after “also recorded” stand apart in the source; their conditions may differ.
# Legend:
# [1] = test system: canines; conditions: cited from earlier work
# [2] = test system: tear staining; experiment: controlling tear staining in Maltese dogs; type: in vivo
# From the text: In preparation of the medicated animal food composition, all of the ingredients (except for the tylosin) are initially processed into a powder and then mixed together with the tylosin, as a tartrate. Tylosin is available from the Omaha Vaccine Co. under the brand name TYLAN and is a veterinary antibiotic that is FDA-approved for fowl (chickens/turkeys) and swine (pigs). Tylosin is used primarily to treat respiratory disease caused by Mycoplasma gallisepticum.
Compound,side effects when used to treat excessive tearing [1],effect in controlling tear staining [2]
CN(C)[C@@H]1C(O)=C(C(N)=O)C(=O)[C@@]2(O)C(O)=C3C(=O)c4c(O)cccc4[C@@](C)(O)[C@H]3C[C@@H]12 [Tetracycline],upset stomach; also recorded: staining of the teeth,–
CC[C@H]1OC(=O)C[C@@H](O)[C@H](C)[C@@H](O[C@@H]2O[C@H](C)[C@@H](O[C@H]3C[C@@](C)(O)[C@@H](O)[C@H](C)O3)[C@H](N(C)C)[C@H]2O)[C@@H](CC=O)C[C@@H](C)C(=O)/C=C/C(C)=C/[C@@H]1CO[C@@H]1O[C@H](C)[C@@H](O)[C@@H](OC)[C@H]1OC [Tylosin],–,some beneficial effect
